# Data published in publication PMC7010297, “How the initiating ribosome copes with ppGpp to translate mRNAs” (PLoS Biology, 2020).
# “And” between values parts separate entries of the source, which are not always exact repeats. Identical values can stand only once.
# Tests used:
# Format in all cases: binding
# [1] = target: T1, IF2-bound 30S IC (Escherichia coli, UniProt P0A705); experiment: 30S IC formation by MST, guanosine nucleotide titration; conditions: for MST Average / MST Replicates (a.u.): Fig 2B (GDP/ppGpp series);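 for MST Average: lower thermophoresis signal means Bpy-tRNAi dissociation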;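 for MST Replicates (a.u.): lower thermophoresis signal means Bpy-tRNAi dissociation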
# T1 construct: 6xHis (N); made in house
# T1 sequence (P0A705 whole entry, looked up): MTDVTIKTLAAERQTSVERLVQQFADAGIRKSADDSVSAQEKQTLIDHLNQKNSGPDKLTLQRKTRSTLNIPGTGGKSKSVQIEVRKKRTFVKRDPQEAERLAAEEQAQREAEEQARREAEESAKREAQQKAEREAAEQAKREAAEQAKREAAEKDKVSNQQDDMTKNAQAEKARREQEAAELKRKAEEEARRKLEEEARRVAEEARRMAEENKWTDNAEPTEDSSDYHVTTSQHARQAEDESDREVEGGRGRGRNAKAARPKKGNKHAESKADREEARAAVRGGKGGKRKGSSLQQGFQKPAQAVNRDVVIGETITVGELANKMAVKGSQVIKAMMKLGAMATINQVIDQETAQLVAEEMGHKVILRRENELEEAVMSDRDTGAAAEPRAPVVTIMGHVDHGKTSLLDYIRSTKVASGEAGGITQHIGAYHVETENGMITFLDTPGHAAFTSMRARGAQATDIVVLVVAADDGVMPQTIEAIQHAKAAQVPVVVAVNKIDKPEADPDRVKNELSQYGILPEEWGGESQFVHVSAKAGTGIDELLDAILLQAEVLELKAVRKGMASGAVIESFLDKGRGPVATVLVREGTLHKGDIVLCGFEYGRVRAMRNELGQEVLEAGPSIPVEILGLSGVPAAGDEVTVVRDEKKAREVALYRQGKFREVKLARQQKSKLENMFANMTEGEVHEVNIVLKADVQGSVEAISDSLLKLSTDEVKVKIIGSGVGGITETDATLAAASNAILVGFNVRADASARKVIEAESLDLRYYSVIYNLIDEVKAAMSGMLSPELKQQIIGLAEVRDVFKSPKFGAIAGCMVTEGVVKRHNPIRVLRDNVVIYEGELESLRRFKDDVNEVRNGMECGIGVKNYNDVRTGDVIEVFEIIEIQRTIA
# Outline: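 Binding of fluorescently labelled initiator tRNA (Bpy-tRNAi) to E. coli 30S subunits followed by microscale thermophoresis, titrating guanosine nucleotides at constant 1 μM IF2. Dissociation constants from quadratic nonlinear fits of Ff/Fi versus ligand concentration; three measurements, mean ± SD.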
# [2] = target: T2, 30S IC (30S-bound IF2, Bpy-tRNAi) (Escherichia coli, UniProt P0A705); experiment: 30S IC formation measured by MST at increasing concentrations of IF2 with guanosine nucleotides; conditions: Fig 2A
# T2 construct: 6xHis (N); made in house
# T2 sequence (P0A705 whole entry, looked up): as above
# Excerpt: To monitor the interaction of initiator tRNA and 30S ribosomal subunits, we used Microscale Thermophoresis (MST) with a fluorescently labelled initiator tRNA (Bpy-tRNAi) (Fig 1B). MST allows to measure fluorescence in a constrained space. Changes on the readout derive from molecular drifts resulting from small thermal equilibrium perturbations. Upon equilibrium perturbations, the patterns of Bpy-tRNAi migration away from the observation space are related to bound and unbound states (Fig 1B). […] On the contrary, a decrease in thermophoresis indicated the dissociation of Bpy-tRNAi. The relation between fluorescence measured at both equilibriums (Ff to Fi, after and prior to the perturbation, respectively) as a function of ligand concentration allowed to determine dissociation constants of the interaction (Fig 1C).
# Continuous lines indicate nonlinear regression fittings with a quadratic equation. Three measurements were performed; mean and standard deviation are plotted (S1 Data). (B) as (A) to measure the concentration dependence for each tested guanosine nucleotide at constant IF2 (1 μM). […] Continuous lines show best fits using exponential functions. (D) Formation of 70S IC as measured by Bpy-tRNAi accommodation in the P site of the ribosome; 0.1 μM 30S ICs were formed with Bpy-tRNAi and rapidly mixed with 0.3 μM 50S subunits on a stopped-flow apparatus as described in [14]. Colors are as in (C). Continuous lines show best fits using an exponential function for a single reaction step. Each stopped-flow trace results from the mean of 5 to 7 replicates.
# [3] = target: T3, 30S-bound IF2 (30S IC) (Escherichia coli, UniProt P0A705); experiment: ppGpp (or GDP) to GTP competitive assay for 30S IC formation by MST
# T3 construct: 6xHis (N); made in house
# T3 sequence (P0A705 whole entry, looked up): as above
# Protocol: MST was calculated from the respective fluorescence time dependencies (S3 Fig). […] Symbols as in (B). […] Continuous lines indicate nonlinear regression fittings with quadratic (B and E) or same-site competition (G) functions. Three measurements were performed; mean and standard deviations are plotted (S1 Data).
# […] Symbols are as indicated, 3 measurements were performed, and mean and standard deviation are plotted (S1 Data). Continuous lines show nonlinear regression fittings with a same-site inhibition model. […] (PDF) Click here for additional data file.
smiles,measurement,setting,value
Nc1nc2c(ncn2[C@@H]2O[C@H](COP(=O)(O)OP(=O)(O)O)[C@@H](OP(=O)(O)OP(=O)(O)O)[C@H]2O)c(=O)[nH]1 [ppGpp],MST Average,[1]; nucleotide 0.13 µM,936.81 a.u.
same,MST Replicates (a.u.),"[1]; nucleotide 0.13 µM, constant IF2 (1 μM)",935.73 a.u. and 937.32 a.u. and 936.20 a.u. and 937.97 a.u.
same,MST Average,[1]; nucleotide 0.25 µM,935.17 a.u.
same,MST Replicates (a.u.),[1]; nucleotide 0.25 µM,933.09 a.u. and 935.35 a.u. and 935.04 a.u. and 937.21 a.u.
same,MST Average,[1]; nucleotide 0.50 µM,935.42 a.u.
same,MST Replicates (a.u.),[1]; nucleotide 0.50 µM,934.19 a.u. and 935.54 a.u. and 934.92 a.u. and 937.01 a.u.
same,MST Average,[1]; nucleotide 1.00 µM,934.04 a.u.
same,MST Replicates (a.u.),[1]; nucleotide 1.00 µM,932.40 a.u. and 934.21 a.u. and 934.12 a.u. and 935.41 a.u.
same,MST Average,[1]; nucleotide 2.00 µM,933.55 a.u.
same,MST Replicates (a.u.),[1]; nucleotide 2.00 µM,931.48 a.u. and 933.31 a.u. and 934.38 a.u. and 935.04 a.u.
same,MST Average,[1]; nucleotide 4.00 µM,931.78 a.u.
same,MST Replicates (a.u.),[1]; nucleotide 4.00 µM,930.04 a.u. and 931.00 a.u. and 932.61 a.u. and 933.45 a.u.
same,MST Average,[1]; nucleotide 8.00 µM,932.68 a.u.
same,MST Replicates (a.u.),[1]; nucleotide 8.00 µM,930.98 a.u. and 932.59 a.u. and 933.05 a.u. and 934.12 a.u.
same,MST Average,[1]; nucleotide 16.00 µM,932.30 a.u.
same,MST Replicates (a.u.),[1]; nucleotide 16.00 µM,931.44 a.u. and 932.29 a.u. and 931.81 a.u. and 933.65 a.u.
same,MST Average,[1]; nucleotide 31.00 µM,930.81 a.u.
same,MST Replicates (a.u.),[1]; nucleotide 31.00 µM,928.79 a.u. and 930.49 a.u. and 930.93 a.u. and 933.04 a.u.
same,MST Average,[1]; nucleotide 62.00 µM,932.86 a.u.
same,MST Replicates (a.u.),[1]; nucleotide 62.00 µM,931.23 a.u. and 932.53 a.u. and 932.57 a.u. and 935.11 a.u.
same,MST Average,[1]; nucleotide 125.00 µM,932.91 a.u.
same,MST Replicates (a.u.),[1]; nucleotide 125.00 µM,931.17 a.u. and 932.39 a.u. and 933.25 a.u. and 934.84 a.u.
same,promotion of Bpy-tRNAi binding (thermophoresis) in guanosine nucleotide titration,[1]; constant IF2 (1 μM),failed to promote Bpy-tRNAi binding at any concentration
same,MST Replicates (a.u.),"[2]; IF2 0.16 µM, in the presence of the nucleotide",941.10 a.u. and 944.88 a.u. and 948.29 a.u.
same,MST Average,[2]; IF2 0.31 µM,944.83 a.u.
same,MST Replicates (a.u.),[2]; IF2 0.31 µM,937.79 a.u. and 942.65 a.u. and 947.01 a.u.
same,MST Average,[2]; IF2 0.63 µM,941.79 a.u.
same,MST Replicates (a.u.),[2]; IF2 0.63 µM,935.48 a.u. and 940.20 a.u. and 943.38 a.u.
same,MST Average,[2]; IF2 1.25 µM,942.39 a.u.
same,MST Replicates (a.u.),[2]; IF2 1.25 µM,936.09 a.u. and 941.10 a.u. and 943.68 a.u.
same,MST Average,[2]; IF2 2.50 µM,949.26 a.u.
same,MST Replicates (a.u.),[2]; IF2 2.50 µM,943.13 a.u. and 948.21 a.u. and 950.30 a.u.
same,MST Average,[2]; IF2 5.00 µM,968.50 a.u.
same,MST Replicates (a.u.),[2]; IF2 5.00 µM,965.17 a.u. and 967.18 a.u. and 969.82 a.u.
same,MST Average,"[3]; mInfA, Log [ppGpp] 0.29",1046.47 a.u.
same,MST Average,"[3]; mInfA, Log [ppGpp] 0.59",1038.08 a.u.
same,MST Average,"[3]; mInfA, Log [ppGpp] 0.89",1028.93 a.u.
same,MST Average,"[3]; mInfA, Log [ppGpp] 1.19",1018.24 a.u.
same,MST Replicates (a.u.),"[3]; mInfA, Log [ppGpp] 1.19",1017.94 a.u. and 1018.60 a.u. and 1018.17 a.u.
same,MST Average,"[3]; mInfA, Log [ppGpp] 1.49",1003.04 a.u.
same,MST Replicates (a.u.),"[3]; mInfA, Log [ppGpp] 1.49",1002.79 a.u. and 1003.03 a.u. and 1003.30 a.u.
same,MST Average,"[3]; mInfA, Log [ppGpp] 1.80",986.30 a.u.
same,MST Replicates (a.u.),"[3]; mInfA, Log [ppGpp] 1.80",985.49 a.u. and 986.54 a.u. and 986.87 a.u.
same,MST Average,"[3]; mInfA, Log [ppGpp] 2.10",973.31 a.u.
same,MST Replicates (a.u.),"[3]; mInfA, Log [ppGpp] 2.10",972.70 a.u. and 973.61 a.u. and 973.64 a.u.
same,MST Average,"[3]; mInfA, Log [ppGpp] 2.40",964.30 a.u.
same,MST Replicates (a.u.),"[3]; mInfA, Log [ppGpp] 2.40",963.79 a.u.
same,MST Average,"[3]; mInfA, Log [ppGpp] 2.70",958.86 a.u.
same,MST Average,"[3]; mInfA, Log [ppGpp] -0.01",1048.67 a.u.
same,MST Average,"[3]; mInfA, Log [ppGpp] -0.31",1053.58 a.u.
same,MST Average,"[3]; mInfA, Log [ppGpp] -0.61",1049.04 a.u.
same,MST Average,"[3]; mMF1, Log [ppGpp] 0.29",1016.08 a.u.
same,MST Average,"[3]; mMF1, Log [ppGpp] 0.59",1007.03 a.u.
same,MST Average,"[3]; mMF1, Log [ppGpp] 0.89",999.03 a.u.
same,MST Average,"[3]; mMF1, Log [ppGpp] 1.19",986.05 a.u.
same,MST Replicates (a.u.),"[3]; mMF1, Log [ppGpp] 1.19",985.88 a.u. and 986.00 a.u. and 986.26 a.u.
same,MST Average,"[3]; mMF1, Log [ppGpp] 1.49",972.28 a.u.
